One may read the IC50 as the midpoint of a concentration-inhibition curve. High values mean a need for much substance, low ones inhibition by little substance.

Bounds are passed on as bounds.

The assay deals with LSD-1 enzyme (Homo sapiens (Human), UniProt O60341). Nature of the assay: LANCE LSD1/KDM1A demethylase assay (LSD1 histone demethylase biochemical assay). The conditions noted are these: 1 nM LSD-1 enzyme, 1 hour preincubation at 25° C., Biotin-labeled Histone H3 peptide substrate. The method, then:
Example A: LSD1 Histone Demethylase Biochemical Assay
LANCE LSD1/KDM1A demethylase assay—10 μL of 1 nM LSD-1 enzyme (ENZO BML-SE544-0050) in the assay buffer (50 mM Tris, pH 7.5, 0.01% Tween-20, 25 mM NaCl, 5 mM DTT) were preincubated for 1 hour at 25° C. with 0.8 μL compound/DMSO dotted in black 384 well polystyrene plates. […] Reactions were stopped by addition of 10 μL 1×LANCE Detection Buffer (PerkinElmer CR97-100) supplemented with 1.5 nM Eu-anti-unmodified H3K4 Antibody (PerkinElmer TRF0404), and 225 nM LANCE Ultra Streptavidin (PerkinElmer TRF102) along with 0.9 mM Tranylcypromine-HCl (Millipore 616431). After stopping the reactions plates were incubated for 30 minutes and read on a PHERAstar FS plate reader (BMG Labtech).
For orientation: Time-resolved FRET reads energy transfer from a long-lived donor to a nearby acceptor.
In the case of `COc1ncc(-c2c(-c3ccc(C#N)cc3)nc(N3CCC(N(C)C)CC3)n3ccnc23)cc1F` [Example 49, 4-[5-[4-(dimethylamino)piperidin-1-yl]-8-(5-fluoro-6-methoxypyridin-3-yl)imidazo[1,2-c]pyrimidin-7-yl]benzonitrile], the IC50 is no more than 50 nM.
In the case of `CN(C)C1CCN(c2nc(-c3ccc(C#N)cc3)c(-c3ccc(N4CCCC4=O)nc3)c3nccn23)CC1` [Example 50, 4-{5-[4-(dimethylamino)piperidin-1-yl]-8-[6-(2-oxopyrrolidin-1-yl)pyridin-3-yl]imidazo[1,2-c]pyrimidin-7-yl}benzonitrile] it was 50 to 500 nM; in that of `CN1C(=O)COc2cc(-c3c(-c4ccc(C#N)cc4)nc(N4CCC(N(C)C)CC4)n4ccnc34)ccc21` [Example 51, 4-[5-[4-(dimethylamino)piperidin-1-yl]-8-(4-methyl-3-oxo-3,4-dihydro-2H-1,4-benzoxazin-7-yl)imidazo[1,2-c]pyrimidin-7-yl]benzonitrile], no more than 50 nM; in that of `CN(C)C1CCN(c2nc(-c3ccc(C#N)cc3)c(-c3ccc4c(c3)nc(C(F)F)n4C)c3nccn23)CC1` [Example 52, 4-{8-[2-(difluoromethyl)-1-methyl-1H-benzimidazol-5-yl]-5-[4-(dimethylamino)piperidin-1-yl]imidazo[1,2-c]pyrimidin-7-yl}benzonitrile], no more than 50 nM.
Take `COc1ncc(-c2c(-c3ccc(C#N)cc3)nc(N3CCC(N(C)C)CC3)n3ccnc23)cc1C` [Example 53, 4-[5-[4-(dimethylamino)piperidin-1-yl]-8-(6-methoxy-5-methylpyridin-3-yl)imidazo[1,2-c]pyrimidin-7-yl]benzonitrile]: the IC50 was no more than 50 nM.
In the case of `CN(C)C1CCN(c2nc(-c3ccc(C#N)cc3)c(-c3cc4oc(=O)n(C)c4cc3F)c3nccn23)CC1` [Example 54, 4-[5-[4-(dimethylamino)piperidin-1-yl]-8-(5-fluoro-3-methyl-2-oxo-2,3-dihydro-1,3-benzoxazol-6-yl)imidazo[1,2-c]pyrimidin-7-yl]benzonitrile] it was no more than 50 nM; in that of `CCN1CCC[C@@H](COc2nc(-c3ccc(C#N)cc3)c(-c3ccc4c(c3)oc(=O)n4C)c3nccn23)C1` [Example 55, 4-[5-{1[(3R)-1-ethylpiperidin-3-yl]methoxy}-8-(3-methyl-2-oxo-2,3-dihydro-1,3-benzoxazol-6-yl)imidazo[1,2-c]pyrimidin-7-yl]benzonitrile], no more than 50 nM.
Turning to `COc1ccc(-c2c(-c3ccc(C#N)cc3)nc(OC[C@@H]3CCCN(CCO)C3)n3ccnc23)cn1` [Example 56, 4-[5-{[(3R)-1-(2-hydroxyethyl)piperidin-3-yl]methoxy}-8-(6-methoxypyridin-3-yl)imidazo[1,2-c]pyrimidin-7-yl]benzonitrile], the IC50 was no more than 50 nM.
For `COc1ncc(-c2c(-c3ccc(C#N)cc3)nc(OC[C@@H]3CCCN(CCO)C3)n3ccnc23)cc1F` [Example 57, 4-(8-(5-fluoro-6-methoxypyridin-3-yl)-5-{[(3R)-1-(2-hydroxyethyl)piperidin-3-yl]methoxy}imidazo[1,2-c]pyrimidin-7-yl)benzonitrile] the value was no more than 50 nM; for `CN(C)C1CCN(c2nc(-c3ccc(C#N)cc3)c(-c3cc(F)c4c(c3)oc(=O)n4C)c3nccn23)CC1` [Example 58, 4-[5-[4-(dimethylamino)piperidin-1-yl]-8-(4-fluoro-3-methyl-2-oxo-2,3-dihydro-1,3-benzoxazol-6-yl)imidazo[1,2-c]pyrimidin-7-yl]benzonitrile], no more than 50 nM.
For `CN1CCC[C@@H](COc2nc(-c3ccc(C#N)cc3)c(-c3cc(F)c4c(c3)oc(=O)n4C)c3nccn23)C1` [Example 59, 4-(8-(4-fluoro-3-methyl-2-oxo-2,3-dihydro-1,3-benzoxazol-6-yl)-5-{[(3R)-1-methylpiperidin-3-yl]methoxy}imidazo[1,2-c]pyrimidin-7-yl)benzonitrile] the value was no more than 50 nM; for `CN(C)C1CCN(c2nc(-c3ccc(C#N)cc3)c(-c3cnc4c(c3)oc(=O)n4C)c3nccn23)CC1` [Example 60, 4-[5-[4-(dimethylamino)piperidin-1-yl]-8-(3-methyl-2-oxo-2,3-dihydro[1,3]oxazolo[4,5-b]pyridin-6-yl)imidazo[1,2-c]pyrimidin-7-yl]benzonitrile], no more than 50 nM.
With `CN1CCC[C@@H](COc2nc(-c3ccc(C#N)cc3)c(-c3cnc4c(c3)oc(=O)n4C)c3nccn23)C1` [Example 61, 4-(8-(3-methyl-2-oxo-2,3-dihydro[1,3]oxazolo[4,5-b]pyridin-6-yl)-5-{[(3R)-1-methylpiperidin-3-yl]methoxy}imidazo[1,2-c]pyrimidin-7-yl)benzonitrile], the IC50 was 50 to 500 nM.
For `CN1C(=O)Cc2cc(-c3c(-c4ccc(C#N)cc4)nc(N4CCC(N(C)C)CC4)n4ccnc34)ccc21` [Example 62, 4-[5-[4-(dimethylamino)piperidin-1-yl]-8-(1-methyl-2-oxo-2,3-dihydro-1H-indol-5-yl)imidazo[1,2-c]pyrimidin-7-yl]benzonitrile] the value was no more than 50 nM.
`Cc1nc2cc(-c3c(-c4ccc(C#N)cc4)nc(N4CCC(N(C)C)CC4)n4ccnc34)ccc2n1C` [Example 63, 4-[5-[4-(dimethylamino)piperidin-1-yl]-8-(1,2-dimethyl-1H-benzimidazol-5-yl)imidazo[1,2-c]pyrimidin-7-yl]benzonitrile] gave an IC50 of no more than 50 nM.
In turn, `CN1CCC[C@@H](COc2nc(-c3ccc(C#N)cc3)c(-c3ccc4c(c3)nc(C(F)F)n4C)c3nccn23)C1` [Example 64, 4-(8-[2-(difluoromethyl)-1-methyl-1H-benzimidazol-5-yl]-5-{[(3R)-1-methylpiperidin-3-yl]methoxy}imidazo[1,2-c]pyrimidin-7-yl)benzonitrile] came in with an IC50 of no more than 50 nM.
Take `Cc1nc2cc(-c3c(-c4ccc(C#N)cc4)nc(OC[C@@H]4CCCN(C)C4)n4ccnc34)ccc2n1C` [Example 65, 4-(8-(1,2-dimethyl-1H-benzimidazol-5-yl)-5-{[(3R)-1-methylpiperidin-3-yl]methoxy}imidazo[1,2-c]pyrimidin-7-yl)benzonitrile]: the IC50 was no more than 50 nM.
In the case of `Cc1ncc(-c2c(-c3ccc(C#N)cc3)nc(N3CCC(N(C)C)CC3)n3ccnc23)cc1C#N` [Example 66, 5-{7-(4-cyanophenyl)-5-[4-(dimethylamino)piperidin-1-yl]imidazo[1,2-c]pyrimidin-8-yl}-2-methylnicotinonitrile] it was 50 to 500 nM; in that of `COC(=O)N(C)c1ccc(-c2c(-c3ccc(C#N)cc3)nc(N3CCC(N(C)C)CC3)n3ccnc23)cn1` [Example 67], 50 to 500 nM.
In the case of `Cc1cc(-c2c(-c3ccc(C#N)cc3)nc(N3CCC(N(C)C)CC3)n3ccnc23)cnc1C` [Example 68, 4-[5-[4-(dimethylamino)piperidin-1-yl]-8-(5,6-dimethylpyridin-3-yl)imidazo[1,2-c]pyrimidin-7-yl]benzonitrile] it was no more than 50 nM; in that of `COc1ncc(-c2c(-c3ccc(C#N)cc3)nc(OC[C@@H]3CCCN(C)C3)n3ccnc23)cc1C` [Example 69, 4-(8-(6-methoxy-5-methylpyridin-3-yl)-5-{[(3R)-1-methylpiperidin-3-yl]methoxy}imidazo[1,2-c]pyrimidin-7-yl)benzonitrile], no more than 50 nM.

For the origin of these results see patent US9944647B2 (Incyte Corporation, priority 2015, dated 2018).
